Our source for the EC50, Emax and inhibition values is patent US20180228780A1, “3-(1H-PYRROLO[2,3-C]PYRIDIN-2-YL)-1H-INDAZOLES AND THERAPEUTIC USES THEREOF” (Samumed, LLC, priority 2015, published 2018).

Common to all, as to type: cell-based
Assay [1] deals with Wnt activity (Sp5-Luc reporter, SW480 colon carcinoma cells). Nature of the assay: Screening assay for Wnt activity: Sp5-Luc reporter gene assay in SW480 cells. The note with it: Homo sapiens; SW480 Sp5-Luc reporter, overnight incubation. From the text: The screening assay for Wnt activity is described as follows. Reporter cell lines can be generated by stably transducing cancer cell lines (e.g., colon cancer) or primary cells (e.g., IEC-6 intestinal cells) with a lentiviral construct that includes a Wnt-responsive promoter driving expression of the firefly luciferase gene.
SW480 colon carcinoma cells were transduced with a lentiviral vector expressing luciferase with a human Sp5 promoter consisting of a sequence of eight TCF/LEF binding sites. SW480 cells stably expressing the Sp5-Luc reporter gene and a hygromycin resistance gene were selected by treatment with 150 μg/mL of hygromycin for 7 days. These stably transduced SW480 cells were expanded in cell culture and used for all further screening activities. […] For Sp5-Luc reporter gene assays, the cells were plated at 4,000 cells/well in 384-well plates with medium containing 1% fetal bovine serum and incubated overnight at 37° C. and 5% CO2. Following incubation, 20 μl of BrightGlo luminescence reagent (Promega) was added to each well of the 384-well assay plates. The plates were placed on an orbital shaker for 2 min and then luminescence was quantified using the Envision (Perkin Elmer) plate reader. Readings were normalized to DMSO only treated cells, and normalized activities were utilized for EC50 calculations using the dose-response log (inhibitor) vs. response-variable slope (four parameters) nonlinear regression feature available in GraphPad Prism 5.0 (or Dotmatics).

Another assay has as its system SW480 colon cancer cells. In words: Cell viability assay (CellTiter-Blue) in SW480 colon cancer cells. The conditions noted are these: Homo sapiens; for EC50: 96 h, SW480 cell viability, four days incubation; for inhibition at 10 µM: SW480, read-out: percent inhibition at 10 μM. As to the method: Representative compounds were screened using the following assay procedure to assess the effect on cell viability as described below.
Approximately 2×10^3 SW480 colon cancer cells were seeded into each well and allowed to incubate in the presence or absence of compound for four days at 37° C./5% CO2. Eight replicates of DMSO-treated cells served as controls and cells treated with compound were performed in duplicate.
After incubation, 20 μL of CellTiter-Blue (Promega) was added to each well allowed to incubate for approximately 3 hours. This reagent was a buffered solution which contains resazurin, metabolically active cells were able to reduce rezarurin (blue) into resorufin (pink) which was highly fluorescent. This measured fluorescence was used as a readout for cell viability.
In general terms: Resazurin is reduced to fluorescent resorufin, in cell work by metabolically active cells.

In assay [2] the test system is Primary human fibroblasts derived from IPF patients (LL29 cells). In words: Inhibition of the fibrotic process: αSMA staining in TGF-β1-treated LL29 fibroblasts. The note with it: Fibroblast; for EC50: 96 h, LL29 cells, TGF-β1 20 ng/mL, 4 days, % αSMA-positive cells; for inhibition at 10 µM: read-out: percent inhibition at 10 μM. The source says:
Representative compounds were screened using primary human fibroblasts (derived from IFF patients) treated with TGF-β1 to determine their ability to inhibit the fibrotic process.
K. L., et.al., “RhoA signaling modulates cyclin D1 expression in human lung fibroblasts; implications for idiopathic pulmonary fibrosis”, Respiratory Research (2006), 7(1), 88] were obtained from American Type Culture Collection (ATCC) and expanded in F12 medium supplemented with 15% Fetal Bovine Serum and Penicillin/Streptomycin.
LL29 cells are plated at 1,500 cells/well in 80 μL/well F12 medium supplemented with 1% Fetal Bovine Serum. […] Wells treated with TGF-β1 and containing DMSO were used as controls. […] Following incubation for 4 days, SYTOX green nucleic acid stain (Life Technologies [Thermo Fisher Scientific]) was added to the wells at a final concentration of 1 μM and incubated at room temperature for 30 min.

Assay [3] deals with primary human mesenchymal stem cells (hMSCs). Nature of the assay: Induction of chondrogenesis in hMSCs (nodule imaging, Rhodamine B / Nile Red). The conditions noted are these: 6 days; for Emax: relative to TGF-β3 (10 ng/mL) positive control, read-out: Max. Activity as % TGF-β3 activity. From the text:
Representative compounds were screened using primary human mesenchymal stem cells (hMSCs) to determine their ability to induce chondrogenesis (process by which cartilage is developed).
Primary human mesenchymal stem cells (hMSCs) were purchased from Lonza (Walkersville, Md.) and expanded in Mesenchymal Stem Cell Growth Media (Lonza). Cells between passage 3 and 6 were used for the experiments.
Area of nodules in each well was normalized to the average of 3 DMSO treated wells on the same plate using Excel (Microsoft Inc.). The normalized averages (fold change over DMSO) of 2 or 3 replicate wells for each compound concentration were calculated. Due to solubility limitations of some of the compounds, curve fitting was incomplete leading to inaccurate EC50 determinations.
Using TGF-β3 as a positive control, the concentration of representative compounds required to induce 50% levels of chondrogenesis is reported. In addition, the maximum activity of each compound and the respective dose that each compound reached maximum chondrogenesis activity is reported.

In the next assay the test system is IL-6 (THP-1 cells). In words: IL-6 inhibition in THP-1 monocytes (HTRF). The conditions noted are these: Homo sapiens; IL-6 inhibition, THP-1 cells, HTRF, 10-point dose-response starting from 10 μM. As to the method: Compound Screening: THP-1 cells were cultured in basal media with 1% FBS for 24 hours before the start of the assay. […] THP-1 cells were plated at 5000 cells/well in the 384-well plates and incubated at 37° C. for 2 h. 500 ng/mL of […] was added after 2 hours and cells were incubated for another 22 hours at 37° C. Plates were spun in a centrifuge for 1 minute at 10,000 rpm and a mixture of anti-IL6 XL665, and anti-IL6 Cryptate diluted in reconstitution buffer (Cisbio Inc.) was added to each well. Following incubation for 3 hrs at room temperature, Homogeneous Time-Resolved Fluorescence (HTRF) was measured using the Envision (Perkin Elmer) at 665 nm and […]. The ratio of fluorescence at 665 nm to 620 nm was used as a readout for IL6 quantification. All samples were processed in duplicate. Readings were normalized to DMSO treated cells and normalized activities were utilized for EC50 calculations using the dose-response log (inhibitor) vs. response-variable slope (four parameters) nonlinear regression feature available in GraphPad Prism 5.0 (or Dotmatics).
A general note: Time-resolved FRET reads energy transfer from a long-lived donor to a nearby acceptor.

On to `CS(=O)(=O)NCc1cc(F)cc(-c2cncc3[nH]c(-c4n[nH]c5ccc(-c6cncc(NC(=O)C7CCC7)c6)cc45)cc23)c1` [Compound 497, N-(5-(3-(4-(3-Fluoro-5-(methylsulfonamidomethyl)phenyl)-1H-pyrrolo[2,3-c]pyridin-2-yl)-1H-indazol-5-yl)pyridin-3-yl)cyclobutanecarboxamide], for which the EC50 in assay [1] was 554 nM; in the assay on SW480 colon cancer cells, 1100 nM; in assay [2], 5430 nM; with IL-6 (THP-1 cells), 198 nM. The Emax in assay [3] came to 15%.

On to `CCCC(=O)Nc1cncc(-c2ccc3[nH]nc(-c4cc5ccncc5[nH]4)c3c2)c1` [Compound 269, N-(5-(3-(1H-Pyrrolo[2,3-c]pyridin-2-yl)-1H-indazol-5-yl)pyridin-3-yl) butyramide], for which the EC50 was found to be 452 nM in assay [1]; 986 nM with SW480 colon cancer cells; 410 nM in assay [2]; 900 nM in assay [3] (concentration required to induce 50% levels of chondrogenesis vs TGF-β3, read-out: Conc (nM) of 50% TGF-β3 activity); 22 nM in the assay with IL-6 (THP-1 cells). In addition, the Emax in assay [3] amounted to 152%.

With `CN(C)Cc1cncc(-c2ccc3[nH]nc(-c4cc5c(-c6ccncc6)cncc5[nH]4)c3c2)c1` [Compound 125], the EC50 was determined as 1060 nM in assay [1], 2170 nM in the assay on SW480 colon cancer cells, 2440 nM in assay [2] and 1160 nM with IL-6 (THP-1 cells). Also, the Emax in assay [3] turned out to be 18%.

For `c1ncc(-c2ccc3[nH]nc(-c4cc5c(N6CCCCC6)cncc5[nH]4)c3c2)cc1CN1CCCC1` [Compound 182, 3-(4-(Piperidin-1-yl)-1H-pyrrolo[2,3-c]pyridin-2-yl)-5-(5-(pyrrolidin-1-ylmethyl)pyridin-3-yl)-1H-indazole], the EC50 in assay [1] came out at 1840 nM; in the assay with SW480 colon cancer cells, 4340 nM; in assay [2] it was 2420 nM; in the assay on IL-6 (THP-1 cells), 503 nM. Besides, the Emax in assay [3] turned out to be 25%.

For the compound `CN1CCN(c2cncc3[nH]c(-c4n[nH]c5ccc(-c6cncc(NC(=O)CC(C)(C)C)c6)cc45)cc23)CC1` [Compound 240, 3,3-Dimethyl-N-(5-(3-(4-(4-methylpiperazin-1-yl)-1H-pyrrolo[2,3-c]pyridin-2-yl)-1H-indazol-5-yl)pyridin-3-yl)butanamide], the EC50 stood at 3480 nM in assay [1], 4450 nM with SW480 colon cancer cells, 2650 nM in assay [2] and 500 nM in the assay on IL-6 (THP-1 cells). Besides, the Emax in assay [3] is 31%.

As to `CS(=O)(=O)NCc1cc(F)cc(-c2cncc3[nH]c(-c4n[nH]c5ccc(-c6cncnc6)cc45)cc23)c1` [Compound 503, N-(3-Fluoro-5-(2-(5-(pyrimidin-5-yl)-1H-indazol-3-yl)-1H-pyrrolo[2,3-c]pyridin-4-yl)benzyl)methanesulfonamide], the EC50 in assay [1] is 2540 nM; with SW480 colon cancer cells it was over 10000 nM; in assay [2], over 10000 nM; with IL-6 (THP-1 cells), 42 nM. Moreover, the inhibition (usually how much of the control response was suppressed) at 10 µM turned out to be 20.3% in the assay on SW480 colon cancer cells and 17.1% in assay [2].

In the case of `c1ncc(-c2ccc3[nH]nc(-c4cc5c(N6CCCCC6)cncc5[nH]4)c3c2)cc1OC1CCCCC1` [Compound 607, 5-(5-(Cyclohexyloxy)pyridin-3-yl)-3-(4-(piperidin-1-yl)-1H-pyrrolo[2,3-c]pyridin-2-yl)-1H-indazole], the EC50 in assay [1] is 1120 nM; with SW480 colon cancer cells, 1980 nM; in assay [2] it was 647 nM; in the assay on IL-6 (THP-1 cells), 4450 nM.

Regarding `Nc1cncc(-c2ccc3[nH]nc(-c4cc5c(N6CCCCC6)cncc5[nH]4)c3c2)c1` [Compound 171, 5-(3-(4-(Piperidin-1-yl)-1H-pyrrolo[2,3-c]pyridin-2-yl)-1H-indazol-5-yl) pyridin-3-amine], the EC50 was 3650 nM in assay [1], over 10000 nM with SW480 colon cancer cells, over 10000 nM in assay [2] and 1540 nM in the assay on IL-6 (THP-1 cells). Besides, the values for the inhibition at 10 µM (with SW480 colon cancer cells; in assay [2]) were 43% and 9.8%, respectively.
